This note sets out measurements from BindingDB's records for doi:10.1124/jpet.103.064907 (Abbott Laboratories, 2004).

For orientation: Ki means a dissociation constant, usually derived from enzyme kinetics or from competition with a known ligand. Low readings indicate tighter binding, high ones weaker binding.

This assay addresses T1, P2X purinoceptor 3 (Homo sapiens, UniProt P56373).
T1 sequence (P56373 whole entry): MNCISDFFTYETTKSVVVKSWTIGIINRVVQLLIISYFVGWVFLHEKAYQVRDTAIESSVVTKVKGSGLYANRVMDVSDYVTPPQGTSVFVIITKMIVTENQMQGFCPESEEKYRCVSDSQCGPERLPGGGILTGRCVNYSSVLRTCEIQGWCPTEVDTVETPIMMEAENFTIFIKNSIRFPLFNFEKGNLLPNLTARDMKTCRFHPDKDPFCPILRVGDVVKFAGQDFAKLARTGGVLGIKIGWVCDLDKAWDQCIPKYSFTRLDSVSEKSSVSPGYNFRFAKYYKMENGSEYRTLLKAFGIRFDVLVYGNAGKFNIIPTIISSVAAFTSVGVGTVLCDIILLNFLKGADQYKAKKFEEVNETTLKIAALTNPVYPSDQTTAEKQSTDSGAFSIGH
The compound `Nc1ncnc2c1ncn2[C@@H]1O[C@H](COP(=O)(O)OP(=O)(O)OP(=O)(O)O)[C@@H](O)[C@H]1O` came in with a Ki of 14.6 nM.
Consider `Nc1ncnc2c1ncn2[C@H]1C[C@H](O)[C@@H](COP(=O)(O)OP(=O)(O)OP(=O)(O)O)O1`, for which the inhibitory constant (Ki) turned out to be 180 nM.
The figure for `Nc1c(S(=O)(=O)O)cc(Nc2ccc(Nc3nc(Cl)nc(Nc4ccccc4S(=O)(=O)O)n3)c(S(=O)(=O)O)c2)c2c1C(=O)c1ccccc1C2=O` is 2530 nM; for `Nc1ncnc2c1ncn2[C@H]1CC[C@@H](COP(=O)(O)OP(=O)(O)OP(=O)(O)O)O1` [2',3'-Dideoxyadenosine Triphosphate (Ddatp)] it is 406 nM.
On to `O=c1ccn([C@@H]2O[C@H](COP(=O)(O)OP(=O)(O)OP(=O)(O)O)[C@@H](O)[C@H]2O)c(=O)[nH]1` [({[({[5-(2,4-dioxo-1,2,3,4-tetrahydropyrimidin-1-yl)-3,4-dihydroxyoxolan-2-yl]methoxy}(hydroxy)phosphoryl)oxy](hydroxy)phosphoryl}oxy)phosphonic acid], for which the inhibitory constant (Ki) is 2610 nM.
The figure for `Nc1ncnc2c1ncn2[C@@H]1O[C@H](COP(=O)(O)CP(=O)(O)OP(=O)(O)O)[C@@H](O)[C@H]1O` [({[({[5-(6-amino-9H-purin-9-yl)-3,4-dihydroxyoxolan-2-yl]methoxy}(hydroxy)phosphoryl)methyl](hydroxy)phosphoryl}oxy)phosphonic acid] is 9 nM; for `Nc1ncnc2c1ncn2[C@@H]1O[C@H](COP(=O)(O)OP(=O)(O)O)[C@@H](O)[C@H]1O` [ADP] it is 452 nM.
The figure for `CSc1nc(N)c2ncn([C@@H]3O[C@H](COP(=O)(O)OP(=O)(O)OP(=O)(O)O)[C@@H](O)[C@H]3O)c2n1` [ATP, 2-meS] is 8.2 nM; for `Nc1ncnc2c1ncn2[C@@H]1O[C@H](COP(=O)(O)OP(=O)(O)S)[C@@H](O)[C@H]1O` (some centres undefined) [CAS_123848] it is 297 nM; for `Nc1ncnc2c1ncn2C1OC(COP(=O)(O)OP(=O)(O)OP(=O)(O)OC2C(CO)OC(n3cnc4c(N)ncnc43)C2O)C(O)C1O` (centres undefined) [CAS_3035419] it is 1670 nM.
The same measure for `CN(C(Cc1ccc(OS(=O)(=O)c2cccc3cnccc23)cc1)C(=O)N1CCN(c2ccccc2)CC1)S(=O)(=O)c1cccc2cnccc12` (centres undefined) [KN-62]: over 10000 nM; for `Nc1ncnc2c1ncn2[C@@H]1O[C@H](COP(=O)(O)OP(=O)(O)OP(=O)(O)O)C[C@H]1O` [NSC_0]: 47.3 nM.
As to `Nc1ncnc2c1ncn2[C@@H]1O[C@H](COP(=O)(O)OP(=O)(O)OP(=O)(O)O)[C@@H](OC(=O)c2ccc(C(=O)c3ccccc3)cc2)[C@H]1O` [NSC_0], the Ki stood at 7.7 nM.
The figure for `Nc1ncnc2c1ncn2[C@@H]1O[C@H](CO[P@](=O)(O)O[P@](=O)(O)OC[C@H]2O[C@@H](n3cnc4c(N)ncnc43)[C@H](O)[C@@H]2O)[C@@H](O)[C@H]1O` [NSC_0] is over 10000 nM.
The figure for `Nc1ncnc2c1ncn2C1OC(COP(=O)(O)OP(=O)(O)OP(=O)(O)OP(=O)(O)OP(=O)(O)OP(=O)(O)OCC2OC(n3cnc4c(N)ncnc43)C(O)C2O)C(O)C1O` (centres undefined) [NSC_123694] is 4.8 nM.
The compound `Nc1ncnc2c1ncn2C1OC(COP(=O)(O)OP(=O)(O)OP(=O)(O)OP(=O)(O)OP(=O)(O)OCC2OC(n3cnc4c(N)ncnc43)C(O)C2O)C(O)C1O` (centres undefined) [NSC_440210] registered a Ki of 10.4 nM.
In the case of `Nc1ncnc2c1ncn2C1OC(COP(=O)(O)OP(=O)(O)OP(O)(O)=S)C(O)C1O` (centres undefined) [NSC_440317], the affinity corresponds to a Ki of 40.3 nM.
For `Nc1ncnc2c1ncn2[C@@H]1O[C@H](COP(=O)(O)OP(=O)(O)CP(=O)(O)O)[C@@H](O)[C@H]1O` [adenylylmethylenediphosphonate], the affinity corresponds to a Ki of 387 nM. Compared with the last compound, the Ki is about 9.6-fold higher.
`Nc1ncnc2c1ncn2[C@@H]1O[C@H](COP(=O)(O)CP(=O)(O)O)[C@@H](O)[C@H]1O` [alpha, beta-methyleneadenosine 5 -diphosphate] gave a Ki of over 10000 nM.
